Our source for the mass density and refractive index values is the NIST ThermoML archive (doi:10.1016/j.jct.2004.07.010).

For series [1] the following is noted: 298.15 K, 101.33 kPa, Liquid.
Series [2] in a line: refractive index (Na D-line) (dimensionless). The note with it: 293.15 K; 101.33 kPa; Liquid; Standard Abbe refractometry.

Molecules are shown by their SMILES. Numbers after ± are expanded uncertainties.

In general, mass density refers to the mass of a sample divided by its volume. What is called refractive index is the speed of light in vacuum divided by its phase velocity in the sample. With `CCc1ccccc1` [ethylbenzene], the mass density in series [1] (Vibrating tube method) turned out to be 862.44 ± 0.55 kg/m3. Also, the refractive index in series [2] was 1.4962 ± 0.0008.
Regarding `O=C1CCCCC1` [cyclohexanone], the mass density in series [1] (Vibrating tube method) is given as 941.7 ± 0.11 kg/m3. The refractive index in series [2] is reported as 1.4507 ± 0.0007.
Take `Cc1ccccc1` [toluene]: in series [1], the mass density is on record as 862.14 ± 0.94 kg/m3. The refractive index in series [2] stood at 1.4965 ± 0.0008.
Take `C=Cc1ccccc1` [styrene]: in series [1], the mass density is 901.51 ± 0.31 kg/m3. For the same compound, the refractive index in series [2] is reported as 1.546 ± 0.0007.
As to `c1ccccc1` [benzene], the mass density in series [1] is reported as 873.56 ± 0.35 kg/m3. Further, in series [2], the refractive index is 1.5009 ± 0.0007.
